# Measurements published in patent US12031087B2, “Oxygenated solvents for improved production of oil and gas” (Board of Regents, The University of Texas System, priority 2019, dated 2024).
# Key:
# [1] = Density of crude oil/3p mixtures (in-line densitometer); format: physicochemical; details: 347 K
# Description: (§1) Density and viscosity experiments. […] The system consists mainly of automated pumps, a sample accumulator, an in-line fluid densitometer, an in-line viscometer, an oven, and an effluent accumulator. The pump (Teledyne ISCO 100DX) maintained the system pressure automatically by water.
# (§2) In the density measuring cell (Anton Paar DMA-HPM), fluid's density is measured in a U-shaped tube, in the range from 0 to 3000 kg/m^3. The instrument precision of the density meter is ±1 kg/m^3. Anton Paar DMA-HPM uses the method of oscillating U-tube for its density measurement, in which the sample's density is calculated from the sample's period of oscillation. The in-line viscometer (ViscoPro 2100) measures the viscosity of a fluid in the range from 0.2 to 2 cp. The instrument precision of the viscometer is ±0.02 cp and repeatability is ±0.5% of the reading. During the viscosity measurement, the magnetic piston is surrounded by the fluid sample and oscillates under magnetic force. The sample's viscosity is calculated from the time required for the piston to complete a two-way cycle. The viscometer and density meter were placed in a Despatch oven (model LAC2-18-8). Light-emitting diode screens that display measured data from the fluid densitometer and viscometer were connected outside the oven. The absolute pressure of the system was measured with a pressure gauge (Omega PX459-2.5KGI-EH).
# (§3) Densities and viscosities were measured for the following mixtures of crude oil and 3p: 81.4 wt % crude oil and 18.6 wt % 3p (33 mol % 3p), 59.0 wt % crude oil and 41.0 wt % 3p (60 mol % 3p), and 35.1 wt % crude oil and 64.9 wt % 3p (80 mol % 3p). Each mixture was mixed in a glass bottle with a magnetic mixer before placing it in the accumulator.
# (§4) Before each measurement, the system was cleaned thoroughly with toluene. Then, the system was dried by air and evacuated. Next, the fluid mixture was pumped into the system from the accumulator. Then, the temperature in the oven was increased to 347 K. When the temperature in the oven was stable, the mixture was measured for viscosities and densities at different pressures, ranging from 101 kPa to 10342 kPa.
# [2] = Viscosity of crude oil/3p mixtures (in-line viscometer); format: physicochemical; details: 347 K
# Description: as §1, §2, §3, §4
# [3] = Coreflooding of fractured cores, vertical (Example 2)
# Description: Experimental Procedure for Coreflooding. […] The Indiana limestone cores have the common dimensions with a diameter of 0.0254 m and a length of 0.127 m. The cores were saturated with RB first and then oil, during which the core properties were measured, such as porosity, permeability, and water and oil saturations.
# It includes an accumulator for crude oil, a pump, a Hassler-type core holder, a hydraulic manual pump to maintain the overburden pressure, a differential pressure gauge, cylinders, and an oven. After a core was placed in the core holder, oil was injected into the cores at 100 cm^3/h and 347 K until no water production was observed.
# An artificial fracture was created along the longitudinal axis using an electric saw for each core (FIG. 20). By following the procedure of Mejia, Teflon spacers with 0.001 m in width and 0.127 m in length were placed along two edges of the fracture to maintain a fracture aperture. Then, the core halves were carefully put together with the Teflon spacers in the fracture, wrapped with a Teflon tube, and placed inside a vertically oriented coreholder.
# FIG. 21 provides a schematic of the experimental setup for coreflooding. It consists of accumulators for crude oil, RB, and chemical solution (3-pentanone or surfactant), a pump, a Hassler-type core holder, a hydraulic manual pump to maintain the overburden pressure, a differential pressure gauge, cylinders, and an oven. […] After a fractured core was placed in the coreholder, the oven temperature was increased to reservoir temperature (347 K). Then, the core was flooded with crude oil to remove any gas inside the fracture and measure the fracture permeability using the flow rate of 900 cm^3/h. The overburden pressure was adjusted so that all cores used in this research had similar fracture apertures and fracture permeabilities.
# Fracture permeabilities were calculated. The equation for flow between parallel plates b=(3πdke)^1/3 was used to estimate a fracture aperture, where b is the fracture aperture, d is the core diameter, and ke is the effective oil permeability of the fractured core. […] Af and Am are cross-sectional areas of the fracture and matrix, respectively. kf and km are permeabilities of the fracture and matrix, respectively.
# The initial RB stage was at 6 cm^3/h for 1.5 pore volumes injected (PVI), then at 0.05 cm^3/h for 0.3-0.4 PVI, and at 6 cm^3/h until there was no oil production. After that, a chemical slug (3-pentanone or surfactant) was injected at 0.6 cm^3/h for 1.6 PVI. Finally, the chase RB was injected at 0.6 cm^3/h. […] However, it was terminated after 1.2 PVI of the chase RB for core 1 because of operational constraints.
# The coreflood effluent was collected in plastic graduating cylinders at room temperature. To correct the oil recovery factor for 3-pentanone solubility in oil, the 3-pentanone concentration in recovered oil was measured by the proton nuclear magnetic resonance (H NMR) method for the chemical slug and chase RB flooding periods for core 1.
# [4] = Volume change on mixing of 3-pentanone and RB (molar volume); format: physicochemical; details: 347 K and atmospheric pressure
structure (smiles),measurement,setting,value
CCC(=O)CC [3-pentanone],density of crude oil diluted with 18.6 wt % 3-pentanone,[1]; atmospheric pressure,772 kg/m^3
same,Density,"[1]; crude oil with 18.6 wt % (33 mol %) 3-pentanone, 103.97 kPa",771.8049 kg/m^3
same,Density,"[1]; crude oil with 18.6 wt % (33 mol %) 3-pentanone, 1385.02 kPa",773.0452 kg/m^3
same,Density,"[1]; crude oil with 18.6 wt % (33 mol %) 3-pentanone, 3452.00 kPa",775.0159 kg/m^3
same,Density,"[1]; crude oil with 18.6 wt % (33 mol %) 3-pentanone, 6899.03 kPa",778.2247 kg/m^3
same,Density,"[1]; crude oil with 18.6 wt % (33 mol %) 3-pentanone, 10345.03 kPa",781.3632 kg/m^3
same,Density,"[1]; crude oil with 41.0 wt % (60 mol %) 3-pentanone, 107.01 kPa",768.9360 kg/m^3
same,Density,"[1]; crude oil with 41.0 wt % (60 mol %) 3-pentanone, 1379.02 kPa",770.3187 kg/m^3
same,Density,"[1]; crude oil with 41.0 wt % (60 mol %) 3-pentanone, 3447.03 kPa",772.3456 kg/m^3
same,Density,"[1]; crude oil with 41.0 wt % (60 mol %) 3-pentanone, 3891.03 kPa",775.7424 kg/m^3
same,Density,"[1]; crude oil with 41.0 wt % (60 mol %) 3-pentanone, 10343.03 kPa",779.0497 kg/m^3
same,Density,"[1]; crude oil with 64.9 wt % (80 mol %) 3-pentanone, 101.01 kPa",765.4374 kg/m^3
same,Density,"[1]; crude oil with 64.9 wt % (80 mol %) 3-pentanone, 1383.02 kPa",766.7794 kg/m^3
same,Density,"[1]; crude oil with 64.9 wt % (80 mol %) 3-pentanone, 3445.03 kPa",769.0788 kg/m^3
same,Density,"[1]; crude oil with 64.9 wt % (80 mol %) 3-pentanone, 6896.00 kPa",772.6733 kg/m^3
same,Density,"[1]; crude oil with 64.9 wt % (80 mol %) 3-pentanone, 10342.00 kPa",776.2332 kg/m^3
same,μo^−1/2 of 3p-diluted oil,"[2]; 33 mol % or 18.6 wt % 3p, atmospheric pressure",1.2383 cp^−1/2
same,Viscosity,"[2]; crude oil with 18.6 wt % (33 mol %) 3-pentanone, 134.38 kPa",0.6522 cp
same,Viscosity,"[2]; crude oil with 18.6 wt % (33 mol %) 3-pentanone, 1381.57 kPa",0.6534 cp
same,Viscosity,"[2]; crude oil with 18.6 wt % (33 mol %) 3-pentanone, 3448.00 kPa",0.6533 cp
same,Viscosity,"[2]; crude oil with 18.6 wt % (33 mol %) 3-pentanone, 6887.59 kPa",0.6545 cp
same,Viscosity,"[2]; crude oil with 18.6 wt % (33 mol %) 3-pentanone, 10336.00 kPa",0.6561 cp
same,Viscosity,"[2]; crude oil with 41.0 wt % (60 mol %) 3-pentanone, 157.89 kPa",0.4609 cp
same,Viscosity,"[2]; crude oil with 41.0 wt % (60 mol %) 3-pentanone, 1375.71 kPa",0.4604 cp
same,Viscosity,"[2]; crude oil with 41.0 wt % (60 mol %) 3-pentanone, 3448.00 kPa",0.4596 cp
same,Viscosity,"[2]; crude oil with 41.0 wt % (60 mol %) 3-pentanone, 6889.10 kPa",0.4613 cp
same,Viscosity,"[2]; crude oil with 41.0 wt % (60 mol %) 3-pentanone, 10337.52 kPa",0.4592 cp
same,Viscosity,"[2]; crude oil with 64.9 wt % (80 mol %) 3-pentanone, 135.9 kPa",0.3267 cp
same,Viscosity,"[2]; crude oil with 64.9 wt % (80 mol %) 3-pentanone, 1381.57 kPa",0.3264 cp
same,Viscosity,"[2]; crude oil with 64.9 wt % (80 mol %) 3-pentanone, 3446.55 kPa",0.3242 cp
same,Viscosity,"[2]; crude oil with 64.9 wt % (80 mol %) 3-pentanone, 6893.45 kPa",0.3221 cp
same,Viscosity,"[2]; crude oil with 64.9 wt % (80 mol %) 3-pentanone, 10340.41 kPa",0.3205 cp
same,oil viscosity reduction,[2]; oil diluted by 18.6 wt % (33 mol %) 3-pentanone,21%
same,"incremental oil recovery factor, chase RB flooding stage","[3]; 1.2 PVI chase RB (terminated), core 1, 347 K",8.4%
same,"incremental oil recovery factor, chemical slug stage","[3]; 1.6 PVI slug after first RB flood, 1.1 wt % 3-pentanone in RB (core 1) or 1.0 wt % 2-EH-4PO-15EO in RB (core 2), 347 K",30.9%
same,total improved oil recovery,"[3]; chemical slug + chase RB stages (1.2 PVI chase core 1; 7.0 PVI chase core 2), 347 K",39.3%
same,volume change on mixing of 3-pentanone and RB,[4],smaller than 0.39%
